Source: patent US4973675A, “Hybrid nitrosoureidoanthracyclines having antitumor activity” (University of Tennessee Research Center, priority 1989, dated 1990)
“Also recorded” adds a separate entry of the source. Where two headings read alike, the source gives them in different places.

Tests used:
[1] = system: human CEM leukemic lymphocytes; assay: Growth inhibition of human CEM leukemic lymphocyte suspension cultures, 48 h continuous drug exposure (ID50); format: cell-based; conditions: for growth inhibitory activity: CEM in vitro; for IC50: Homo sapiens, Lymphocyte, CEM, 48 hr continuous drug exposure (Table 2), read-out: ID50 (the source's name)
Procedure: (§1) Culture and bioassay conditions were as described in Cancer Chemotherapy Pharmacology 20:277 (1987) "Comparative Effects of Adriamycin and DNA-nonbinding Analogues on DNA, RNA, and Protein Synthesis in Vitro", Israel et al., except that cell counts were determined by hemocytometer rather than by automated cell counting.

[2] = system: murine L1210 leukemia cells; assay: Clonogenic assay with cultured murine L1210 leukemia cells, 1 h drug exposure (LD90); format: cell-based; conditions: for clonogenic cell kill: L1210, 1 hour exposure; for IC90: Mus musculus, L1210, 1 hr drug exposure, read-out: L1210 LD90 (dose killing 90% of clonogens)
Procedure: as §1
+Dose killing 90% of clonogens, 1hr. drug exposure.

DNA topoisomerase II = assay: Drug-stimulated topoisomerase II-mediated DNA cleavage assay (end-labeled PMC41 DNA); format: biochemical; conditions: for enhancement of topoisomerase II-mediated DNA cleavage: 625-fold concentration range; for DNA topoisomerase II-inhibitory and alkylating activity: summary of biochemical studies
Text: FIGS. 5A and 5B are a photographic reproduction of the results of drug-stimulated topoisomerase II-mediated DNA cleavage assays performed on various compounds, including compounds of the present invention.
DNA intercalation is a necessary but not a sufficient requirement for DNA topoisomerase II-mediated DNA cleavage. Accordingly, determination of drug-induced enzyme inhibition requires direct assay with isolated topoisomerase II. These assays involve determination of drug-enhanced topoisomerase II-mediated cleavage of PMC41 DNA appropriately end-labeled with [α-^32 P]dATP. As better seen in FIG. 5B, lane B, purified topoisomerase II, under the assay conditions, causes fragmentation of the DNA (background cleavage), as indicated by the radioautographic appearance of bands of cleaved DNA having differing mass values.

murine L1210 lymphocytes = assay: DNA alkaline elution filter assay, DNA damage in murine L1210 lymphocytes; format: cell-based; conditions: L1210
Text: (§2) By means of the DNA alkaline elution filter assay technique, it is possible to assess the nature of damage induced in DNA by exposure to drugs and other agents. Depending on the assay conditions, DNA lesions can be quantified as direct strand breaks, DNA-DNA interstrand crosslinks, and protein-associated strand breaks and crosslinks. The action of akylating-type drugs on DNA typically results in a predominant formation of direct DNA single-strand breaks and DNA-DNA crosslinks. DNA intercalating agents show a preponderance of protein-associated DNA damage, detectable as protein-associated single-strand breaks and DNA-protein crosslinks.
(§3) The nature of nitrosoureidoanthracycline-induced DNA damage in murine L1210 and human CLL lymphocytes was assessed by means of the alkaline elution filter technique. Murine L1210 leukemic lymphocytes, like P388/S lymphocytes, are known to contain high levels of topoisomerase II.
(§4) *All concentrations 1 μM, 1hr incubation. Each entry represents the
(§5) mean of at least two experiments, frequency per 10^6 nucleotides;
(§6) statistically significant increase above background underlined. DB, direc
(§7) (nonenzymatic) DNA breaks; PAB, proteinassociated DNA cleavage; DDCL,
(§8) interstrand DNA crosslinks; DPCL, DNAprotein crosslinks.

[3] = Solubility in water or saline; format: physicochemical
Procedure: Accordingly, the compounds are formulated for administration by dissolving the compound in a pharmaceutically acceptable non-toxic carrier which contains a surfactant. The present inventors employ a formulation of 10% Cremaphor EL (a polyhydroxylated castor oil derivative) available from BASF Chemicals, 10% ethanol and 80% aqueous media (sterile water or saline solution). That quantity of the compound desired for establishing an effective dose is dissolved in a 1:1 mixture of Cremaphor EL and ethanol. Thereafter, sufficient aqueous medium is added with stirring to develop a final formulation containing 80% aqueous medium. This formulation is administered parenterally.

[4] = Chemical stability / autodegradation to oxazolidinone (HPLC); format: physicochemical
Text: FIGS. 2A and 2B are reproductions of HPLC printouts showing autodegration of N-2-chloroethylnitrosoureidoadriamycin.
Again, depending upon the specific compound, similar results were seen when compounds were exposed to aqueous media or even maintained in the dry state in a vacuum desiccator. Of importance, all daunorubicin urea and nitrosourea products, regardless of the specific alkyl or aryl substituent, afforded the same anthracycline degradation product; similarly, all adriamycin ureas and nitrosoureas afforded the same other degradation material.
Epirubicin (4'-epiadriamycin) is an example of such a starting material.

murine P388 leukemia = assay: In vivo antitumor activity vs. murine P388 (P388/S) leukemia; design: species or system murine (B6D2F1 males); conditions: for Long-term survivors / Median increase in lifespan / Median survival / Net mean percent weight change, day 7 / Range of deaths (dying animals): ip
Text: Initial studies utilized a multiple dose schedule, with drug administered once daily on days 1, 2, 3 and 4. […] The marked activity of AD 312 in this system has been confirmed in multiple separate experiments.
Additional studies were done with AD 312 vs. murine P388/S under more demanding conditions of assay.
^a Summary results of 4 separate experiments. B6D2F1 males; 1 ×

[5] = system: plasmid PC15 supercoiled DNA; assay: DNA unwinding assay (interference with DNA topoisomerase I-mediated unwinding; drug-DNA intercalation); format: biochemical
Text: DNA unwinding assays were used to measure the ability of a test drug to interfere with DNA topoisomerase I-mediated unwinding of plasmid PC15 supercoiled DNA. DNA topoisomerase I controls the topology of double-stranded DNA and is itself not inhibited by DNA intercalating agents. Rather, intercalating agents cause distortion of the torsional angle between adjacent DNA strand components and thereby interfere with the ability of topoisomerase I to convert supercoiled DNA into relaxed forms. Accordingly, this assay is taken as the definitive test of drug-DNA intercalation.
Drugs were tested at 4 concentrations over a 125-fold concentration range. […] These compounds are 2-chloroethylurea derivatives of daunorubicin and adriamycin, respectively (i.e. not nitrosoureas, but chemical intermediates from which the nitrosoureas were derived).

human CLL lymphocytes = assay: DNA alkaline elution filter assay, DNA damage in human CLL lymphocytes; format: cell-based; conditions: for DD-CL, interstrand DNA crosslinks / DP-CL, DNA-protein crosslinks: CLL, 1 μM, 1 hr incubation
Text: as §2, §3, §4, §5, §6, §7, §8
B-cell type lymphocytes freshly obtained from patients with chronic lymphocytic leukemia (CLL) show undetectable levels of topoisomerase II.

SMILES: COc1cccc2c1C(=O)c1c(O)c3c(c(O)c1C2=O)C[C@@](O)(C(=O)CO)C[C@@H]3O[C@H]1C[C@H](NC(=O)N(CCCl)N=O)[C@@H](O)[C@H](C)O1 [AD 392, 2-chloroethylnitrosoureidoepirubicin]
- potency compared to adriamycin (more potent) [1]: 10 fold
- growth inhibitory activity [1]: almost identical in vitro biological properties; also recorded: moderate to marked growth inhibitory activity
- IC50 [1]: 5 nM
- clonogenic cell kill [2]: essentially equipotent
- IC90 [2]: 530 nM
- enhancement of topoisomerase II-mediated DNA cleavage (DNA topoisomerase II): no saturation of background cleavage
- DNA topoisomerase II-inhibitory and alkylating activity (DNA topoisomerase II): clearly establish the DNA topoisomerase II-inhibitory activity and alkylating activity
- pattern of DNA damage (murine L1210 lymphocytes): pattern of DNA damage consistent with both topoisomerase II inhibition and DNA-alkylatingaction
- solubility ([3]; water or saline solution): essentially insoluble in water or saline solution
- solubility ([3]; water, of the order of, read-out: solubility in water): < 25 µg/mL
- chemical stability / tendency to decompose to oxazolidinone ([4]; relative to adriamycin-derived products): improved chemical stability

SMILES: COc1cccc2c1C(=O)c1c(O)c3c(c(O)c1C2=O)C[C@@](O)(C(=O)CO)C[C@@H]3O[C@H]1C[C@H](NC(=O)N(CCCl)N=O)[C@H](O)[C@H](C)O1 [AD 347, 2-chloroethylnitrosoureidoadriamycin]
- potency compared to adriamycin (more potent) [1]: 10 fold
- growth inhibitory activity [1]: almost identical in vitro biological properties; also recorded: moderate to marked growth inhibitory activity
- IC50 [1]: 5 nM
- clonogenic cell kill [2]: essentially equipotent
- IC90 [2]: 580 nM
- increase in life span (murine P388 leukemia; P388/S, 16.0 mg/kg/day×4): > 500%
- survival at 60 days (murine P388 leukemia; P388/S, 16.0 mg/kg/day×4): 57%
- Long-term survivors (murine P388 leukemia; 2.0 mg/kg qd 1-4 (Table 7)): 0/7
- Median increase in lifespan (murine P388 leukemia; 2.0 mg/kg qd 1-4 (Table 7)): +70%
- Median survival (murine P388 leukemia; 2.0 mg/kg qd 1-4 (Table 7)): 17 days
- Net mean percent weight change, day 7 (murine P388 leukemia; 2.0 mg/kg qd 1-4 (Table 7)): +8%
- Range of deaths (dying animals) (murine P388 leukemia; 2.0 mg/kg qd 1-4 (Table 7)): 16 to 18 days
- Long-term survivors (murine P388 leukemia; 4.0 mg/kg qd 1-4 (Table 7)): 0/7
- Median increase in lifespan (murine P388 leukemia; 4.0 mg/kg qd 1-4 (Table 7)): +90%
- Median survival (murine P388 leukemia; 4.0 mg/kg qd 1-4 (Table 7)): 19 days
- Net mean percent weight change, day 7 (murine P388 leukemia; 4.0 mg/kg qd 1-4 (Table 7)): +2%
- Range of deaths (dying animals) (murine P388 leukemia; 4.0 mg/kg qd 1-4 (Table 7)): 18 to 21 days
- Long-term survivors (murine P388 leukemia; 8.0 mg/kg qd 1-4): 0/7
- Median increase in lifespan (murine P388 leukemia; 8.0 mg/kg qd 1-4): +120%
- Median survival (murine P388 leukemia; 8.0 mg/kg qd 1-4): 22 days
- Net mean percent weight change, day 7 (murine P388 leukemia; 8.0 mg/kg qd 1-4): +2%
- Range of deaths (dying animals) (murine P388 leukemia; 8.0 mg/kg qd 1-4): 19 to 24 days
- Median increase in lifespan (murine P388 leukemia; 12.0 mg/kg qd 1-4): +160%
- Median survival (murine P388 leukemia; 12.0 mg/kg qd 1-4): 26 days
- Net mean percent weight change, day 7 (murine P388 leukemia; 12.0 mg/kg qd 1-4): +2%
- Range of deaths (dying animals) (murine P388 leukemia; 12.0 mg/kg qd 1-4): 22 to 37 days
- Long-term survivors (murine P388 leukemia; 12.0 mg/kg qd 1-4, sacrifice day 60): 2/7
- Median increase in lifespan (murine P388 leukemia; 16.0 mg/kg qd 1-4): > +500%
- Net mean percent weight change, day 7 (murine P388 leukemia; 16.0 mg/kg qd 1-4): -3%
- Range of deaths (dying animals) (murine P388 leukemia; 16.0 mg/kg qd 1-4): 26 to 31 days
- Long-term survivors (murine P388 leukemia; 16.0 mg/kg qd 1-4, sacrifice day 60): 4/7
- relative strength of drug-DNA intercalation (arbitrary scale) ([5]; 0 = no intercalation, 9 = very strong intercalation): 8
- interference with topoisomerase I-mediated conversion of supercoiled DNA / intercalation ([5]; 4 concentrations, 125-fold range): the ability of these compounds to intercalate, a prerequisite for topoisomerase II inhibition, is clearly established
- enhancement of topoisomerase II-mediated DNA cleavage (DNA topoisomerase II): no saturation of background cleavage
- DNA topoisomerase II-inhibitory and alkylating activity (DNA topoisomerase II): clearly establish the DNA topoisomerase II-inhibitory activity and alkylating activity
- pattern of DNA damage (murine L1210 lymphocytes): pattern of DNA damage consistent with both topoisomerase II inhibition and DNA-alkylatingaction
- pattern of DNA damage (human CLL lymphocytes; CLL B-cell lymphocytes): some level of protein-associated DNA damage in these cells, but also affords significant levels of alkylation-type damage, seen as direct strand breaks and, with increasing time, DNA interstrand crosslinks
- DD-CL, interstrand DNA crosslinks (human CLL lymphocytes; 0 hr after treatment): -0.18 frequency per 10^6 nucleotides
- DP-CL, DNA-protein crosslinks (human CLL lymphocytes; 0 hr after treatment): 0.16 frequency per 10^6 nucleotides
- DD-CL, interstrand DNA crosslinks (human CLL lymphocytes; 1 hr after treatment): -0.04 frequency per 10^6 nucleotides
- DP-CL, DNA-protein crosslinks (human CLL lymphocytes; 1 hr after treatment): 0.17 frequency per 10^6 nucleotides
- DP-CL, DNA-protein crosslinks (human CLL lymphocytes; 3 hr after treatment): 0.19 frequency per 10^6 nucleotides
- autodegradation ([4]; HPLC, chloroform-methanol, overnight in the cold where stated): a second signal was clearly evident
